# According to patent US11959095B2, “Compositions, cell constructs, and methods of making and using the same” (Wake Forest University Health Sciences, priority 2016, dated 2024):
# Tests used:
# [1] = cited from earlier work
# [2] = tested on: cells on S3 stiff hydrogel; assay: Proliferation on S3 stiff hydrogel softened with collagenase, MTS assay; format: cell-based; settings: gels softened on day 4 with collagenase (1:10 dilution) for 10 minutes, vs control gels
# Protocol: (§1) In a 96 well plate, we placed 10,000 cells on two sets of nine wells of 50 ul S3 stiff hydrogel and the wells were filled with DMEM high glucose and cultured for a week. On day 4, one set of gels were softened using collagenase (1:10 dilution) for 10 minutes. Now proliferation of cells was compared between contol gels and softened gels using MTS assays on day 7.
# U138 spheroids = assay: WNT pathway modulation in GBM U138 spheroids in hydrogel; format: cell-based
# Protocol: For the WNT experiments, spheroids of GBM U 138(ATCC® HTB-16™) cell line were formed by hanging drop method in a 96 well plate by using 10,000 cells per drop of 20 μl, which were cultured for 72 hours in high glucose DMEM before being harvested to be setup in HyStem HP-Hydrogels. The spheroids were placed sandwiched between two layers of gel of total volume of 250 μl. The spheroids were then given different media compositions. Normal high glucose media being the control, the spheroids behaviour in WNT pathway agonist BIO and WNT pathway antagonist XAV939 were studied.
# Experiments were conducted with single cell cancer spheroids with U138 cells. The WNT pathway was manipulated by adding either an agonist of the WNT pathway BIO or an antagonist of the WNT pathway XAV939 to the media.
# [3] = tested on: cells on PEGSSDA hydrogel; assay: Proliferation on PEGSSDA hydrogel softened with NAC, MTS assay; format: cell-based; settings: gels softened on day 4 with NAC 100 mmol for 60 minutes, vs control gels
# Protocol: as §1, with “ul PEGSSDA” for “ul S3 stiff”, “using NAC 100 mmol” for “using collagenase (1:10 dilution)”, “for 60” for “for 10”, “between control” for “between contol”
# liver organoids = assay: APAP toxicity testing and N-acetyl-L-cysteine intervention in liver organoids; format: cell-based, human; settings: 10 mM APAP plus 20 mM NAC
compound,measurement,setting,value
"Cn1nnc2c(C(N)=O)ncn2c1=O [TMZ, temozolomide]",concentrations in the cerebrospinal fluid (CSF) relative to plasma,[1]; CSF vs plasma,approximately 20%
same,peak CSF concentrations,[1]; CSF,26 ± 4 µM
collagenase,"proliferation of cells (MTS, day 7)",[2],the same results were observed
O=C1Nc2cc(Br)ccc2/C1=C1/Nc2ccccc2/C1=N\O [BIO],proliferation and migration in the spheroids,U138 spheroids; WNT pathway agonist added to the media,shut down proliferation and migration
Oc1nc(-c2ccc(C(F)(F)F)cc2)nc2c1CSCC2 [XAV939],cancer cells' phenotype (morphology),U138 spheroids; WNT pathway antagonist added to the media,more epithelial appearance than a mesenchymal appearance
"CC(=O)N[C@@H](CS)C(=O)O [NAC, N-acetyl-L-cysteine]","proliferation of cells (MTS, day 7)",[3],Reduced proliferation
same,detected urea production,liver organoids,increased over time
same,detected albumin production,liver organoids; day 14,98 ng/mL
